Test results: patent US20240342179A1, “TREATMENT OF CANCERS OR NEOPLASMS BY INHIBITING KIF15” (University of Kansas, priority 2023, published 2024)

Legend:
[1] = molecular target: KIF15/TPX2 protein-protein interaction (GST-KIF15 amino acids 1149-1388, His-TPX2 amino acids 346-747) (Homo sapiens (Human), UniProt Q9NS87); assay: KIF15/TPX2 AlphaScreen assay; assay type: binding
Experimental: The protocol designed peptides corresponding to the appropriate domains of KIF15 (amino acids 1149-1388, GST-tagged) and TPX2 (amino acids 346-747, His-tagged), for use in the AlphaScreen assay.
Next, the protocol screened a total of 191,852 compounds from the KU-HTS library. Analysis identified 584 hits that inhibited the primary AlphaScreen TPX2-KIF15 interaction to greater than three standard deviations plus the plate inhibition-median. The 584 hits were tested for assay interference in the AlphaScreen counter-screen using His-GST fusion protein. […] Of the 467 hits, 399 inhibited the TPX2-KIF15 interaction in a dose-response manner. Refinement was conducted until identifying the compounds provided herein.
To identify compounds that inhibit KIF15-mediated bipolar spindle formation, a process that is dependent on KIF15 binding to TPX2, the protocol designed a high-throughput screen using AlphaScreen Technology. Previous studies predicted that KIF15-TPX2 binding is mediated through a C-terminal coiled-coil domain on KIF15 (amino acids 1149-1388; amino acids 1359-1380) that binds the C-terminal region of TPX2 (amino acids 475-715; amino acids 680-747)^50, 52, 57, 58. Based on these observations, the protocol designed peptides corresponding to the appropriate domains of TPX2 (amino acids 346-747, His-tagged), and KIF15 (amino acids 1149-1388, GST-tagged) for use in the AlphaScreen assay.
Next, the protocol screened a total of 191,852 compounds from the KU-HTS small-molecule compound collection. The protocol identified 584 hits that inhibited the primary AlphaScreen TPX2-KIF15 interaction to greater than three standard deviations plus the plate inhibition-median. The 584 hits were tested for assay interference in the AlphaScreen assay counter-screen using His-GST fusion protein eliminating 117 compounds^99. […] Of the 467 hits, 399 inhibited the KIF15-TPX2 interaction in a concentration-dependent manner (FIGS. 3A-3D), rendering them candidates for follow-on validation in orthogonal and counter-screen assays. Informed by computational and medicinal chemistry assessment^100, the protocol selected a representative subset of approximately 200 of the 399 compound hits for additional characterization. Samples for 177 compounds from the subset of approximately 200 representative compounds were available for purchase. Samples of these 177 compounds were purchased for structure verification by NMR and further characterization. There was enough compound sample procured to complete follow-on screening for 166 of the 177 compounds.

GST-KIF15 1149-1388 = GST-KIF15 1149-1388 (Homo sapiens (Human), UniProt Q9NS87); assay: NMR (STD-NMR / WaterLOGSY) versus GST-KIF15; assay type: binding; conditions: for NMR Versus GST-KIF15: Hit / No; for WaterLOGSY binding to GST-KIF15: 1:150 GST-KIF15 1149-1388
Sequence of GST-KIF15 1149-1388 (Q9NS87 1149-1388): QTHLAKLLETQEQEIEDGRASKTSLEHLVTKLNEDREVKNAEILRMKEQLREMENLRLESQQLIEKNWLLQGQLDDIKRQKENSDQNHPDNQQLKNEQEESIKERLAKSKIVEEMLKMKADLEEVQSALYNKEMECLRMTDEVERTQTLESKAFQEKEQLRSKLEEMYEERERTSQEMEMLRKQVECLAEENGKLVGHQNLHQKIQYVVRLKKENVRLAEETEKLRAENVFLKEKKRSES
Experimental: (§1) WaterLOGSY NMR Spectra of Compounds A1 and B2 are provided.
Various cocktails of compounds were prepared to test for interactions. 100 μL DMSO-d6 was added to 3 mg of material. 26 cocktails of 6 compounds were prepared and 3 cocktails of 7 compounds were prepared. Then, 3 μM protein is added to 300 μM of the cocktails in 10% D2O buffer. Concentration of compounds is 10 mM each.
(§2) The 166 compound hit samples were further characterized for KIF15 or TPX2 binding using biophysical saturation transfer difference nuclear magnetic resonance (STD-NMR) and WaterLOGSY assays. The 166 compound samples were screened by STD-NMR for evidence of binding to GST-KIF15 or His-TPX2. In our assessment, no hits bound to His-TPX2. The protocol counter-screened potential hits against a His-GST peptide^99 and for aggregation using protein-free controls. Ultimately, three compound hits representing two compound chemotypes were validated to bind KIF15 by WaterLOGSY (FIGS. 4A-4B).

[2] = tested on: EOC cell lines (A2780, OVCAR5, and SKOV3); assay: Synergy with ispinesib in cell viability (Bliss score); assay type: cell-based; conditions: combination with ispinesib
From the text: The protocol tested all 166 samples of compound hits for complete screening for synergism in KIF11-inhibited cells EOC cell lines (A2780, OVCAR5, and SKOV3) (FIGS. 5A-5C).
Bliss score analyzes the statistical independence of the two treatments. A positive score indicates synergism, a negative score indicates antagonism and a score of zero indicates a purely additive effect of the combination therapy.

His-TPX2 346-747 = His-TPX2 346-747 (Homo sapiens (Human), UniProt Q9ULW0); assay: NMR (STD-NMR / WaterLOGSY) versus His-TPX2; assay type: binding; conditions: 1:150 His-TPX2 346-747
Sequence of His-TPX2 346-747 (Q9ULW0 346-747): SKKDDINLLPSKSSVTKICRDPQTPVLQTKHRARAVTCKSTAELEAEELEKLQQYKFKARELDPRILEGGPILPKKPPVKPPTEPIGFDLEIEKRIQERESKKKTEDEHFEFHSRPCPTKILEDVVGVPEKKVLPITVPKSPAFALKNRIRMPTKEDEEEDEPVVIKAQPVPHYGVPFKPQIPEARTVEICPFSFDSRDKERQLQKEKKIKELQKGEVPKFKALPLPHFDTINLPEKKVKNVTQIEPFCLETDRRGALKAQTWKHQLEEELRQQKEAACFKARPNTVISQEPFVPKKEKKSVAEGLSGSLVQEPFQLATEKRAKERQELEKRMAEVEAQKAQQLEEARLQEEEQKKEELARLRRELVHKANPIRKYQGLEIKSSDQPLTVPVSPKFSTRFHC
From the text: as §1, §2

KIF15-HiBiT = KIF15-HiBiT (Homo sapiens (Human), UniProt Q9NS87); assay: Cellular thermal shift assay (CETSA), HiBiT split luciferase; assay type: cell-based; conditions: 100 μM
Sequence of KIF15-HiBiT (Q9NS87 whole entry, the tested form may be a part): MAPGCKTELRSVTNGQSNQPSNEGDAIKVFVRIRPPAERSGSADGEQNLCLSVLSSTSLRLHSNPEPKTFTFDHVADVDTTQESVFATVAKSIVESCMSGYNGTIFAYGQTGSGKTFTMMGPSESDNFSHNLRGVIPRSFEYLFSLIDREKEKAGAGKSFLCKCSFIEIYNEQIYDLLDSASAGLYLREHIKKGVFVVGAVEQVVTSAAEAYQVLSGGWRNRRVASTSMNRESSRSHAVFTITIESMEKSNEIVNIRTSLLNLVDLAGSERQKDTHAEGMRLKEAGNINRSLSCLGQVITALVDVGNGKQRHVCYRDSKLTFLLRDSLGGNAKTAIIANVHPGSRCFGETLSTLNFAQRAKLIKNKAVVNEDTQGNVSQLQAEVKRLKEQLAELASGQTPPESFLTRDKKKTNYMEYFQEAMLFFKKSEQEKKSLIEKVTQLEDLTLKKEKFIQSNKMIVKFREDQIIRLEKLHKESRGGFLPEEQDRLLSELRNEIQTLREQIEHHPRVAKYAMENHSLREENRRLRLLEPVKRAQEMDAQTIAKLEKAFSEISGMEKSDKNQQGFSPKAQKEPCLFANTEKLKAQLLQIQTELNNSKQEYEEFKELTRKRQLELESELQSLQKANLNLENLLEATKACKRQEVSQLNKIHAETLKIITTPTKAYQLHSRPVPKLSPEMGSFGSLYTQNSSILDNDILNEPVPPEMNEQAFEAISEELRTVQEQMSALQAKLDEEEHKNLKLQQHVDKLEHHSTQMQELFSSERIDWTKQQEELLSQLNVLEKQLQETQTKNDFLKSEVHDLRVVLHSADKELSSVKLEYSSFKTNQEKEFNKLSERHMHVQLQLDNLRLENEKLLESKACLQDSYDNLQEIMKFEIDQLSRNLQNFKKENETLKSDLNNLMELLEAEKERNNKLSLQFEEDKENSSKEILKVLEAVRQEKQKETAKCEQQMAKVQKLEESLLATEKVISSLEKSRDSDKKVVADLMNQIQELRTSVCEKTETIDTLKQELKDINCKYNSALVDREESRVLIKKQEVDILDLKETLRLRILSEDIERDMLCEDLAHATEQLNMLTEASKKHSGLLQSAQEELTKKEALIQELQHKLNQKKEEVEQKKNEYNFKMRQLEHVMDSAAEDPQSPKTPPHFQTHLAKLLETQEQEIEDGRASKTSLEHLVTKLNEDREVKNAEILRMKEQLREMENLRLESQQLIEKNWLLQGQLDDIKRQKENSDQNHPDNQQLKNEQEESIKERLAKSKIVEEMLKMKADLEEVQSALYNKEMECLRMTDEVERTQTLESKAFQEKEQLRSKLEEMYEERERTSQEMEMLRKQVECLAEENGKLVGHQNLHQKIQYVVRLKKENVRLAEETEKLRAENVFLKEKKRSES
Experimental: To verify that the three putative binders of KIF15 identified by NMR spectroscopy against KIF15 fragments, a cellular thermal shift assay was performed. All three compounds at 100 μM stabilized KIF15 when thermally challenged to a greater extent than the TPX2 mimetic peptide used as a positive control (Δ5.7° C. for compound A1, Δ5.3° C. for compound A2, and Δ9.6° C. for compound B1, Δ2.1° C. for TPX2 mimetic peptide).
The HiBiT Split Luciferase based protein detection method utilized for screening of candidate compounds for physical binding to KIF15. […] The increase in stability of the protein indicates ligand engagement by stabilizing the protein in a natured conformation.
These three compound hits, referred to as Compounds A1, A2 and B1 (FIG. 3A) were screened for target engagement in CETSA. In short, a split luciferase tag known as HiBiT (Promega, Madison, WI) was fused to the KIF15 protein in a transient expression vector. Soluble protein can be easily quantified by adding the LgBiT subunit of nano luciferase. A stabilizing shift in the melting temperature of the protein indicates the protein is being stabilized by the engaged small molecule indicating direct binding of the small molecule to its target.

Sequence of KIF15/TPX2 protein-protein interaction (GST-KIF15 amino acids 1149-1388, His-TPX2 amino acids 346-747) (Q9NS87 1149-1388): as the sequence (Q9NS87 1149-1388) above

SMILES	IC50 [1]	IC50 (TruHits counter-screen)	NMR Versus GST-KIF15 (GST-KIF15 1149-1388)	WaterLOGSY binding to GST-KIF15 (GST-KIF15 1149-1388)	synergy with ispinesib in inhibition of growth [2]	WaterLOGSY / STD-NMR binding to His-TPX2 (His-TPX2 346-747)	shift in thermostability of KIF15 (KIF15-HiBiT)
CCCN1CCN(c2ncc3c(n2)CCN(Cc2ccc(CC)cc2)C3)CC1 [Compound 1, 6-(4-ethylbenzyl)-2-(4-propylpiperazin-1-yl)-5,6,7,8-tetrahydropyrido[4,3-d]pyrimidine]	32.2 ± 4.6 µM	393 ± 13 µM	No	–	–	–	–
CCCN1CCN(c2ncc3c(n2)CCN(Cc2cccc(F)c2F)C3)CC1 [Compound 2, 6-(2,3-difluorobenzyl)-2-(4-propylpiperazin-1-yl)-5,6,7,8-tetrahydropyrido[4,3-d]pyrimidine]	27.8 ± 4.7 µM	428 ± 38 µM	No	–	–	–	–
CCCN1CCN(c2ncc3c(n2)CCN(Cc2ccc(OCC)c(OCC)c2)C3)CC1 [Compound 3, 6-(3,4-diethoxybenzyl)-2-(4-propylpiperazin-1-yl)-5,6,7,8-tetrahydropyrido[4,3-d]pyrimidine]	42.2 ± 3.3 µM	510 ± 6 µM	No	–	–	–	–
CCCN1CCN(c2ncc3c(n2)CCN(Cc2ccc(Br)s2)C3)CC1 [Compound 4, 6-((5-bromothiophen-2-yl)methyl)-2-(4-propylpiperazin-1-yl)-5,6,7,8-tetrahydropyrido[4,3-d]pyrimidine]	23 ± 1.6 µM	312 ± 79 µM	Hit	–	–	–	–
CCCN1CCN(c2ncc3c(n2)CCN(Cc2cccc(Br)c2)C3)CC1 [Compound 5, 6-(3-bromobenzyl)-2-(4-propylpiperazin-1-yl)-5,6,7,8-tetrahydropyrido[4,3-d]pyrimidine]	21 µM	287 ± 8 µM	Hit	–	–	–	–
CCCN1CCN(c2ncc3c(n2)CCN(Cc2ccc(Br)cc2)C3)CC1 [Compound 6, 6-(4-bromobenzyl)-2-(4-propylpiperazin-1-yl)-5,6,7,8-tetrahydropyrido[4,3-d]pyrimidine]	13.6 ± 1.2 µM	628 ± 35 µM	Hit	–	–	–	–
CCOc1ccc(CN2CCc3nc(N4CCN(CC)CC4)ncc3C2)cc1OCC [Compound 7, 6-(3,4-diethoxybenzyl)-2-(4-ethylpiperazin-1-yl)-5,6,7,8-tetrahydropyrido[4,3-d]pyrimidine]	2.8 ± 0.3 µM	176 ± 9 µM	No	–	–	–	–
CCN1CCN(c2ncc3c(n2)CCN(Cc2cc(OC)c(OC)cc2OC)C3)CC1 [Compound 8, 2-(4-ethylpiperazin-1-yl)-6-(2,4,5-trimethoxybenzyl)-5,6,7,8-tetrahydropyrido[4,3-d]pyrimidine]	2.4 ± 0.1 µM	120 ± 5.2 µM	No	–	–	–	–
CCN1CCN(c2ncc3c(n2)CCN(Cc2ccc(OC)c(OC)c2OC)C3)CC1 [Compound 9, 2-(4-ethylpiperazin-1-yl)-6-(2,3,4-trimethoxybenzyl)-5,6,7,8-tetrahydropyrido[4,3-d]pyrimidine]	1.7 ± 0.1 µM	196 ± 0.1 µM	No	–	–	–	–
CCN1CCN(c2ncc3c(n2)CCN(Cc2ccccc2Cl)C3)CC1 [Compound 10, 6-(2-chlorobenzyl)-2-(4-ethylpiperazin-1-yl)-5,6,7,8-tetrahydropyrido[4,3-d]pyrimidine]	1.5 ± 0.01 µM	86 ± 16 µM	Hit	indicates binding	Synergy	not observed	significant shift in thermostability
CCN1CCN(c2ncc3c(n2)CCN(Cc2cc(OC)c(OC)c(OC)c2)C3)CC1 [Compound 11, 2-(4-ethylpiperazin-1-yl)-6-(3,4,5-trimethoxybenzyl)-5,6,7,8-tetrahydropyrido[4,3-d]pyrimidine]	2.5 ± 0.8 µM	556 ± 38 µM	No	–	–	–	–
CCOc1ccc(CN2CCc3nc(N4CCN(CC)CC4)ncc3C2)cc1OC [Compound 12, 6-(4-ethoxy-3-methoxybenzyl)-2-(4-ethylpiperazin-1-yl)-5,6,7,8-tetrahydropyrido[4,3-d]pyrimidine]	3.5 ± 0.5 µM	305 ± 13 µM	No	–	–	–	–
CCCN1CCN(c2ncc3c(n2)CCN(Cc2ccc(OCC)c(OC)c2)C3)CC1 [Compound 13, 6-(4-ethoxy-3-methoxybenzyl)-2-(4-propylpiperazin-1-yl)-5,6,7,8-tetrahydropyrido[4,3-d]pyrimidine]	44.8 ± 0.2 µM	664 ± 103 µM	No	–	–	–	–
C=CCn1c(C(=O)NCc2ccccn2)cc2sc(C)cc21 [Compound 14, 4-allyl-2-methyl-N-(pyridin-2-ylmethyl)-4H-thieno[3,2-b]pyrrole-5-carboxamide]	5.6 ± 0.3 µM	87 ± 2 µM	–	indicates binding	Synergy	not observed	significant shift in thermostability
CCCN1CCN(c2ncc3c(n2)CCN(Cc2cc(Br)cs2)C3)CC1 [Compound 15, 6-((4-bromothiophen-2-yl)methyl)-2-(4-propylpiperazin-1-yl)-5,6,7,8-tetrahydropyrido[4,3-d]pyrimidine]	–	–	Hit	–	–	–	–
CCN1CCN(c2ncc3c(n2)CCN(Cc2ccc(F)cc2F)C3)CC1 [Compound 16, 6-(2,4-difluorobenzyl)-2-(4-ethylpiperazin-1-yl)-5,6,7,8-tetrahydropyrido[4,3-d]pyrimidine]	–	–	No	–	–	–	–
CCN1CCN(c2ncc3c(n2)CCN(Cc2cccc(OC)c2OC)C3)CC1 [Compound 17, 6-(2,3-dimethoxybenzyl)-2-(4-ethylpiperazin-1-yl)-5,6,7,8-tetrahydropyrido[4,3-d]pyrimidine]	–	–	No	–	–	–	–
CCN1CCN(c2ncc3c(n2)CCN(Cc2cc(Br)cs2)C3)CC1 [Compound 18, 6-((4-bromothiophen-2-yl)methyl)-2-(4-ethylpiperazin-1-yl)-5,6,7,8-tetrahydropyrido[4,3-d]pyrimidine]	–	–	Hit	–	–	–	–
CCN1CCN(c2ncc3c(n2)CCN(Cc2ccc(OC(C)C)c(OC)c2)C3)CC1 [Compound 19, 2-(4-ethylpiperazin-1-yl)-6-(4-isopropoxy-3-methoxybenzyl)-5,6,7,8-tetrahydropyrido[4,3-d]pyrimidine]	–	–	No	–	–	–	–
CCOc1cccc(CN2CCc3nc(N4CCN(CC)CC4)ncc3C2)c1 [Compound 20, 6-(3-ethoxybenzyl)-2-(4-ethylpiperazin-1-yl)-5,6,7,8-tetrahydropyrido[4,3-d]pyrimidine]	–	–	No	–	–	–	–
